The nature of series [1]: Host cell cytotoxicity assay (CellTiter-Glo). The following applies: human. How it is done:
HepG2 cells were grown in Eagle’s Minimum Essential Medium (MEM) containing 10% FBS, 1% nonessential amino acids (NEAA) and 1% penicillin/streptomycin to >50% confluence prior to harvesting. Cells were suspended in media and 3000 cells per well were added onto 384-well clear bottom plates. Prior to addition of the cell suspension, the screening compounds (250 nl) were predispensed into plates using a liquid handler. Plates were incubated for 48 h at 37°C, 5% CO2. After 48 h of incubation, plates were equilibrated at room temperature for 30 min before luminescence signal was measured using CellTiter-Glo Reagent. Plates were kept at room temperature for 10 min to stabilize the signal and then read using a ViewLux luminescence reader. The HepG2 CC50 (from the host cell cytotoxicity assays) and C. parvum mean EC50 (from parasite growth inhibition assays) values were used to calculate selectivity index.
(In general: Cellular ATP, detected with luciferase, serves as a proxy for viable cell number.)

The next series deals with Cryptosporidium parvum. Briefly: In vitro C. parvum growth inhibition assay (Nluc reporter strain in HCT-8 cells). The following applies: 48 h. In kind it is cell-based. How it is done:
Host intestinal epithelial adenocarcinoma (HCT-8) cells were seeded into 96-well plates and grown to 70% confluence in RPMI medium supplemented with L-glutamine, 10% fetal bovine serum (FBS), 0.1 U/mL penicillin, 0.1 μg/mL streptomycin, 0.25 μg/mL amphotericin B and 1 mM sodium pyruvate. The host cell medium was aspirated and replaced with Cryptosporidium infection media (RPMI containing 2% FBS, 0.1 U/mL penicillin, 0.1 μg/mL streptomycin and 0.25 μg/mL amphotericin B) media prior to infection. The HCT-8 cells were infected with bleached and washed Nluc expressing C. parvum oocysts (2,000 oocysts per well) to which 10 μM compounds were added and plates were incubated for 48 h at 37°C, 5% CO2 and luminescence was measured using the protocol described previously ([14], [58]). […] Negative (no drug) and positive control (10 μM nitazoxanide) wells (three replicates each) were also set-up in the same plate. After the incubation, medium was removed and 100 μL of NanoGlo lysis buffer (Promega) was added to the wells followed by incubation for 15 min at 37°C, 5% CO2. The lysate was suspended by pipetting and 100 μL of NanoGlo lysis buffer containing 1:50 of NanoGlo substrate (Promega) was added to each well. […] For the dose response assay, compounds were tested in triplicate wells in two independent experiments and percent luminescence of no drug was calculated.
EC50 values were calculated using a nonlinear regression (curve fit of log-dose versus response) in GraphPad Prism version 8.

Read-outs that look alike come from different tables or passages of the source.

As usually defined, the CC50 is the concentration at which the toxic effect on the cells reaches its halfway point. High values mean better tolerance by the cells, low ones harm at low concentration. Consider `Cc1ccc(O)cc1Nc1ccnc2ccc(S(C)(=O)=O)cc12` [Compound 5], for which the CC50 at 48 h in series [1] was 15.8 µM.
For orientation: inhibition means the share of the control response that was lost under treatment. Take `CC(=O)Oc1ccccc1C(=O)Nc1ncc([N+](=O)[O-])s1` [Nitazoxanide, nitazoxanide, reference compound]: the inhibition at 10 µM was more than 90% in the series on Cryptosporidium parvum (10 μM, read-out: inhibition of C. parvum growth) and 94.5% in the series on Cryptosporidium parvum (primary screen, 10 μM compound, three technical replicates, read-out: Mean percent inhibition of C. parvum growth).

Source of the values: paper PMC9927415, “Tyrosine Kinase Inhibitors Display Potent Activity against Cryptosporidium parvum” (Microbiology Spectrum, 2022).
